# Laboratory results from patent US20240018470A1, “METHOD OF MANIPULATING PLURIPOTENCY IN CELLS” (YALE UNIVERSITY, priority 2022, published 2024).
# How the values were obtained:
# Xenopus embryos [1] = experiment: Gastrulation scoring (incomplete blastopore closure) in treated or kcnh6-depleted embryos; format: in vivo, Xenopus tropicalis; details: for inability to complete gastrulation: kcnh6 depletion, injected at one-cell stage
# Method: All injections of Xenopus embryos were performed at the one-cell stage using a fine glass needle and Picospritzer system. A kcnh6 translation blocking (kcnh6 MO, 5′-[…]-3′, SEQ ID NO:1) and a scrambled morpholino oligonucleotide were obtained from Gene Tools LLC and injected at 10 ng to deplete kcnh6 or as a control, respectively. CRISPR sgRNAs for kcnh6 targeted either exon 3 or exon 4 based on the v7.1 gene model of the X. tropicalis genome (CRex3: 5′-[…]-3′, SEQ ID NO:2 and CRex4: 5′-[…]-3′, SEQ ID NO:3). CRISPR sgRNAs for cacna1c (5′-[…]-3′, SEQ ID NO:4) and cacna1g (5′-[…]-3′, SEQ ID NO:5) were designed from the v7.1 model of the Xenopus tropicalis genome. For F0 CRISPR knockdown, embryos were injected with 1.5 ng Cas9 Protein (PNA-Bio) and 400 pg of targeting sgRNA and raised to desired stages. […] Full length human KCNH6 (NM 030779.3; cloned in pCS107), GCaMP6 (subcloned in pCSDest) and mCherry cDNAs (Addgene #34935; in pCS2+), were used to generate capped mRNAs in vitro by first linearizing with appropriate restriction enzymes and then transcribing with the mMessage machine kit (Ambion). mRNAs were injected at 3 pg (human KCNH6), 150 pg (GCaMP6) and 150 pg (mCherry) per embryo. Embryos were raised at 21° C. to allow time for sufficient expression levels at blastula/gastrula stages.
# (§1) Normal embryonic medium is 1/9× modified Ringer's (MR) containing 11 mM NaCl, 0.2 mM KCl, 0.2 mM CaCl2), 0.1 mM Mg2Cl and 0.55 mM HEPES. To allow Ergtoxin to penetrate the embryos, the present study manually removed the vitelline envelope of stage 8 embryos and incubated embryos in 1/9×MR containing 50 nM Ergtoxin (Alomone STE-450) until stage 12. Embryos were then transferred back into 1/9×MR lacking Ergtoxin to develop until stage 45 in order to score organ situs. Barium chloride was applied into the medium at 20 mM and embryos were thoroughly rinsed in 1/9×MR after each incubation period for further development in Ba2+-free medium. For extracellular K^+ manipulations, the KCl concentration in 1/9×MR was modified from 0.2 mM (normal) to 20 mM (high) or 0 mM (low). The ionophore valinomycin (ACROS) and L-type VGCC blocker Nifedipine (ACROS) were diluted in DMSO as stock solutions and applied to embryos in 1/9×MR at 2 nM and 10 μM respectively. Treatments performed during gastrulation were applied from stage 8 through stage 12, and embryos were then rinsed thoroughly and returned into 1/9×MR. For rapamycin, the present study created a standard stock solution of 50 mg/ml in DMSO. The stock solution was diluted 1:2500 in the appropriate embryonic media (final 20 μg/ml). Embryos were treated at stage 7 and then fixed at stage 11 for in situ hybridization.
# (§2) In experiments where embryos were evaluated for phenotypes and scored (gastrulation, left-right patterning, in situ hybridizations) the present study carried out three to five biological replicates and Fisher's exact test to evaluate statistical significance. The animal cap experiment was performed twice with a total score of four to eight animal caps per experiment. For the calcium transient analyses, data was collected from three to five embryos in each experiment in three independent experiments, and statistical analyses on GCaMP/mCherry fluorescence intensity as well as Ca^2+ transient area were performed using student's t-test. For whole cell electrophysiological recordings, three to five embryos (two cells each) were examined for their membrane potential and statistical significance was tested by student's t-test. Graphs were designed using GraphPad Prism software. Models were created with BioRender.com.
# Xenopus embryos [2] = experiment: Organ situs (left-right patterning) scoring in stage 45 tadpoles; format: in vivo, Xenopus tropicalis; details: for abnormal organ situs: kcnh6 depletion, injected at one-cell stage
# Method: Stage 45 Xenopus embryos were paralyzed with benzocaine or tricaine and scored with a light stereomicroscope. Cardiac looping was determined by position of the outflow tract; D-loop: rightward, L-loop: leftward; A-loop: midline. Normal intestinal looping was scored as counter-clockwise rotation of the gut, while abnormal intestinal looping was scored as completely inverse gut rotation (clockwise) or complete lack of looping (un-looped). While a completely inverted gut rotation is clearly an abnormality of LR patterning, an unlooped gut is less clear so the present study only considered an unlooped gut as abnormal situs when combined with abnormal placement (left-sided or midline) of the gall bladder. To quantify total abnormal organ situs, each tadpole was counted only once, regardless of whether multiple organs were affected.
# as §1, §2
# Xenopus embryos [3] = experiment: Whole mount in situ hybridization for germ layer and pluripotency markers; format: in vivo, Xenopus tropicalis; details: for expression of ectodermin and myf5 on co-depletion in kcnh6 depleted embryos: CRISPR co-depletion
# Description: In order to generate a full-length antisense probe for X. tropicalis kcnh6, kcnh6 cDNA was cloned from stage 45 tadpole whole mRNA using primers […] ID NO:10) and […] ID NO:11) (XM_012952904.1). It was noted that kcnh6 had been misannotated as kcnh2 in the v7.1 model of the X. tropicalis genome (The present study used NCBI Annotation XP_012808358.2 to identify KCNH6). […] GRPs were dissected post fixation and prior to dehydration to detect dandy. To detect putative gene expression in the prospective endoderm (mixer, vegT, kcnh6) gastrula stage embryos were bisected to facilitate better probe access. Briefly, whole mount in situ hybridization of digoxigenin-labeled antisense probes was performed overnight, the labelled embryos were then washed, incubated with anti-digoxigenin-AP Fab fragments (Roche 11093274910), and signal was detected using BM-purple (Roche 11442074001). Normal embryonic medium is 1/9× modified Ringer's (MR) containing 11 mM NaCl, 0.2 mM KCl, 0.2 mM CaCl2), 0.1 mM Mg2Cl and 0.55 mM HEPES. […] For extracellular K^+ manipulations, the KCl concentration in 1/9×MR was modified from 0.2 mM (normal) to 20 mM (high) or 0 mM (low). […] For rapamycin, the present study created a standard stock solution of 50 mg/ml in DMSO. The stock solution was diluted 1:2500 in the appropriate embryonic media (final 20 μg/ml). […] In experiments where embryos were evaluated for phenotypes and scored (gastrulation, left-right patterning, in situ hybridizations) the present study carried out three to five biological replicates and Fisher's exact test to evaluate statistical significance. The animal cap experiment was performed twice with a total score of four to eight animal caps per experiment. […] For whole cell electrophysiological recordings, three to five embryos (two cells each) were examined for their membrane potential and statistical significance was tested by student's t-test. Graphs were designed using GraphPad Prism software. Models were created with BioRender.com.
# [4] = test system: animal pole cells (prospective ectoderm); experiment: Intracellular Vm recordings in animal pole cells; format: in vivo, Xenopus tropicalis; details: high K^+ and ½ sodium replacement with choline; stage 9 animal pole
# Description: For recordings, devitellinized, stage 10 kcnh6 or control MO injected embryos were mounted into non-toxic clay with their animal pole exposed and covered with 1/9×MR. To investigate the resting potential, animal pole cells were impaled with a high-impedance (˜70 Me), sharp microelectrode filled with 3 M KCl for intracellular recordings. The recordings were made using an Axon 200B amplifier and digitized using a Digidata 1320 digitizer. Jclamp software for Windows was used in current clamp mode. All electrodes were zeroed just before entry into the cells.
# For the series of intracellular recordings in high K^+ and choline treated embryos, stage 8-9 embryos were impaled similarly with an electrode of […]. These recordings were made using a HEKA EPC10 amplifier. The present study used HEKA PatchMaster v2x67 software for Windows. […]
# In experiments where embryos were evaluated for phenotypes and scored (gastrulation, left-right patterning, in situ hybridizations) the present study carried out three to five biological replicates and Fisher's exact test to evaluate statistical significance. […] For the calcium transient analyses, data was collected from three to five embryos in each experiment in three independent experiments, and statistical analyses on GCaMP/mCherry fluorescence intensity as well as Ca^2+ transient area were performed using student's t-test. […]
# hESCs = experiment: hESC pluripotency marker immunofluorescence; format: cell-based, human; details: hESCs, rapamycin 100 nM, 5 days
# Method: hESCs were grown in mTeSR1 ([…] Technologies) in tissue culture dishes coated with Matrigel (Corning; 1:200 in DMEM/F12) and kept at 37° C., 5% CO2. The cell lines used were ESI017 (ESIBIO) and H9.
# Cells were dissociated with accutase and seeded onto 8 well imaging slides (ibidi 80826) at a density of 4-6×10^4/cm^2. Cells were seeded and maintained in Rock-inhibitor Y27672 (MCE; 10 μM) to increase survival and the uniformity of response. Treatments with 1 mM BaCl2 or 10 or 25 nM Ergtoxin or 100 nM rapamycin were initiated 4 hours after seeding. Differentiation was initiated 24 hours after seeding where indicated. To initiate differentiation, the media was replenished with/without BaCl2 or Ergtoxin and treated with the indicated growth factors or small molecules. Cells were incubated for the indicated times without media change before fixation.
# Cells were fixed for 30 min in 4% paraformaldehyde, rinsed twice with DPBS (without Ca^2+ and Mg^2+, denoted DPBS^−/−), and blocked for 30 min at room temperature. The blocking solution contained 3% donkey serum and 0.1% Triton X-100 in 1×DPBS^−/−. After blocking, the cells were incubated with primary antibodies at room temperature for 2 hours. Antibodies and concentrations are listed below. Cells were washed three times with DPBST (1×DPBS^−/− with Tween 20) and incubated with secondary antibodies (AlexaFluor 488 A21206, AlexaFluor 555 A31570 and A21432, and AlexaFluor 647 A31571, Thermo Fisher; 1:500) and DAPI for 30 min at room temperature. After secondary antibody incubation, samples were washed in DPBST and then DPBS at room temperature.
# Images were acquired using a 20×, NA 0.75 objective on an Olympus IX83 inverted epifluorescence microscope or an Olympus/Andor spinning disk confocal microscope. Cell segmentation was performed using ilastik software. This segmentation was cleaned (to remove debris and to separate merged cells) and mean nuclear protein intensities as well as standard errors were quantified using a custom MATLAB code. Nuclear intensities were normalized by DAPI to correct for intensity variation due to optics. […]
# [5] = nifedipine-treated (10 μM) kcnh6 CR embryos
# [6] = nifedipine-treated (10 μM) kcnh6 MO embryos
molecule,measurement,setting,value
"[Ba+2].[Cl-].[Cl-] [Barium, Barium chloride]",embryos that failed to complete gastrulation,"Xenopus embryos [1]; depolarizing treatment at blastula/gastrula stages (stage 8-12), barium chloride 20 mM or KCl 20 mM, ±SEM",37±3%
same,embryos with misplacement of organs relative to the left-right axis (defective organ situs),"Xenopus embryos [2]; depolarizing treatment at blastula/gastrula stages, scored at stage 45, ±SEM",23±2%
same,"markers of dorsal (gsc, nodal3) and ventral mesoderm (vent2)","Xenopus embryos [3]; depolarized embryos, stage 10",unaffected
same,"paraxial mesoderm fates (myoD, myf5, tbxt)","Xenopus embryos [3]; depolarized embryos, stage 10",lost
"cacna1c: CRISPR sgRNA for cacna1c (Cav1.2; L-type), SEQ ID NO:4 (guide GCAGACGGGGGCAGCGCCATTGG; sgRNA chemistry not given here; the letters are possibly those of the target site)",expression of ectodermin and myf5 on co-depletion in kcnh6 depleted embryos,Xenopus embryos [3],rescued expression
C[N+](C)(C)CCO [choline],Vm,[4],−41±4 mV
"CR-ex4: CRISPR sgRNA targeting kcnh6 exon 4, SEQ ID NO:3, injected with Cas9 protein (guide AGGGCGCTCTACATTTCCAATGG; sgRNA injected with Cas9 protein, chemistry not given here; the letters are possibly those of the target site)",inability to complete gastrulation,Xenopus embryos [1],29±5%
same,abnormal organ situs,Xenopus embryos [2],19±1%
COC(=O)C1=C(C)NC(C)=C(C(=O)OC)C1c1ccccc1[N+](=O)[O-] [nifedipine],embryos with absent ectodermin,Xenopus embryos [3]; [5],16±7%
same,embryos with myf5 lost,Xenopus embryos [3]; [5],16±1%
same,embryos with absent ectodermin,Xenopus embryos [3]; [6],17±3%
same,embryos with myf5 lost,Xenopus embryos [3]; [6],18±5%
"CR-ex3: CRISPR sgRNA targeting kcnh6 exon 3, SEQ ID NO:2, injected with Cas9 protein (guide GGAATAAGGGGTGAAGACAGCGG; sgRNA injected with Cas9 protein, chemistry not given here; the letters are possibly those of the target site)",inability to complete gastrulation,Xenopus embryos [1],27±4%
same,abnormal organ situs,Xenopus embryos [2],43±12%
CO[C@H]1C[C@@H]2CC[C@@H](C)[C@@](O)(O2)C(=O)C(=O)N2CCCC[C@H]2C(=O)O[C@H]([C@H](C)C[C@@H]2CC[C@@H](O)[C@H](OC)C2)CC(=O)[C@H](C)/C=C(\C)[C@@H](O)[C@@H](OC)C(=O)[C@H](C)C[C@H](C)/C=C/C=C/C=C/1C [rapamycin],final cell numbers per well,hESCs,reduce the final cell numbers per well
CC(C)[C@@H]1NC(=O)[C@H](C)OC(=O)[C@@H](C(C)C)NC(=O)[C@@H](C(C)C)OC(=O)[C@H](C(C)C)NC(=O)[C@H](C)OC(=O)[C@@H](C(C)C)NC(=O)[C@@H](C(C)C)OC(=O)[C@H](C(C)C)NC(=O)[C@H](C)OC(=O)[C@@H](C(C)C)NC(=O)[C@@H](C(C)C)OC1=O [valinomycin],gastrulation defect in kcnh6 CR embryos,"Xenopus embryos [1]; kcnh6 CR embryos treated with valinomycin 2 nM, stage 8-12",16±7%
"cacna1g: CRISPR sgRNA for cacna1g (Cav3.1; T-type), SEQ ID NO:5 (guide GGTTAATGGCTCTCAGCGGGCGG; sgRNA chemistry not given here; the letters are possibly those of the target site)",expression of ectodermin and myf5 on co-depletion in kcnh6 depleted embryos,Xenopus embryos [3],no rescue
